Our source for the pest or weed control values is US10167300B2, “Metalloenzyme inhibitor compounds as fungicides” (priority 2014, dated 2019).

Read-outs that look alike come from different tables or passages of the source.

What all share (assay type): in vivo, Mycosphaerella graminicola on wheat plants (variety Yuma)
Test [1] in a line: Type B (low volume, EC formulation, track sprayer 200 L/ha) assay, leaf blotch of wheat, SEPTTR field isolate (FI SEPTTR). The settings on record: Zymoseptoria tritici, 72 h, 100 g/ha. The gist of the method: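 Wheat seedlings (Yuma, first leaf emerged) sprayed with acetone/Triton X-100 solutions (Type A) or 10% EC diluted in 0.1% Trycol at 200 L/ha (Type B), inoculated before or after spraying. Inoculated plants held 3 days at 20 °C, 100% RH, then greenhouse; % disease control from severity versus untreated plants.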

Test [2] has as its system Mycosphaerella graminicola; Anamorph: Septoria tritici; Bayer Code SEPTTR (standard laboratory isolate, SI SEPTTR). Kind of test: Type B (low volume, EC formulation, track sprayer 200 L/ha) assay, leaf blotch of wheat, standard laboratory SEPTTR isolate (SI SEPTTR). Particulars: Zymoseptoria tritici, 72 h, SEPTTR standard laboratory isolate, low volume Type B assay, 100 g/ha, wheat leaf blotch. The procedure:
(§1) Example A: Evaluation of Fungicidal Activity: Leaf Blotch of Wheat (Mycosphaerella graminicola; Anamorph: Septoria tritici; Bayer Code SEPTTR)
(§2) For Type A assays, technical grades of the experimental fungicides in Table 4 below were dissolved in acetone, and then mixed with nine volumes of water containing 110 ppm Triton X-100. The fungicide solutions were applied onto wheat seedlings using an automated booth sprayer. For Type B assays, emulsifiable concentrate (EC) formulations of technical grades of the experimental fungicides in Table 4 below were prepared at 10% (w/v), and then mixed with 150 volumes of 0.1% Trycol 5941. These solutions were applied onto wheat seedlings using an automated track sprayer at 200 L/ha. All sprayed plants were allowed to air dry prior to further handling.
(§3) Wheat plants (variety Yuma) were grown from seed in a greenhouse in 50% mineral soil/50% soil-less Metro mix until the first leaf was fully emerged, with 7-10 seedlings per pot. Prior to or after application of experimental fungicides, plants were inoculated either with spores of a standard laboratory SEPTTR isolate (SI SEPTTR) or with spores from a SEPTTR field isolate collected from Wellsbourne, England in 2012 (FI SEPTTR). After inoculation the plants were kept for 3 days at 20° C. in 100% relative humidity (one day in a dark dew chamber followed by two days in a lighted dew chamber). Plants were then transferred to a 20° C. greenhouse for disease development. When disease symptoms were fully expressed on untreated plants, infection levels on treated plants were assessed on a scale of 0 to 100 percent disease severity. Percent disease control was calculated using the ratio of disease severity on treated plants relative to untreated plants.

For test [3] the test system is unchanged. Kind of test: Type A (high volume) assay, leaf blotch of wheat, standard laboratory SEPTTR isolate (SI SEPTTR). Particulars: Zymoseptoria tritici, standard laboratory isolate, high volume, 50 ppm, wheat (Yuma). As to the method:
as §1, §2, §3

The mark [4] stands for this setting: field isolate, low volume EC, 3 Day Curative, wheat (Yuma), read-out: Disease Control, FI SEPTTR Type B Assay (100 g/ha) 3 DC.
Setting [5] is: field isolate, low volume EC, 3 Day Protectant, wheat (Yuma), read-out: Disease Control, FI SEPTTR Type B Assay (100 g/ha) 3 DP.
Where [6] appears, read: 24 h, 1 Day Protectant, read-out: Disease Control, SI SEPTTR Type A Assay (50 ppm) 1 DP.
[7] abbreviates: 72 h, 3 Day Curative, read-out: Disease Control, SI SEPTTR Type A Assay (50 ppm) 3 DC.

Take `COC(c1cncnc1)(c1ccc(-c2ccc(OC(F)(F)F)cc2)cn1)C(C)(C)C` (stereo not shown) [Compound 277, 5-(1-methoxy-2,2-dimethyl-1-(5-(4-(trifluoromethoxy)phenyl)pyridin-2-yl)propyl)pyrimidine]: the pest or weed control at 100 g/ha in test [1] (SEPTTR field isolate, low volume Type B assay, 3 Day Curative, wheat leaf blotch, read-out: Disease Control, FI SEPTTR Type B Assay (100 g/ha) 3 DC) was 80 to 100%; in test [1] (SEPTTR field isolate, low volume Type B assay, 3 Day Protectant, wheat leaf blotch, read-out: Disease Control, FI SEPTTR Type B Assay (100 g/ha) 3 DP), 80 to 100%; in test [2] (3 Day Curative, read-out: Disease Control, SI SEPTTR Type B Assay (100 g/ha) 3 DC), 80 to 100%; in test [2] (3 Day Protectant, read-out: Disease Control, SI SEPTTR Type B Assay (100 g/ha) 3 DP) it was 80 to 100%.
For the compound `COc1ccc(-c2ccc(C(O)(c3cncnc3)C(C)(C)C)nc2)c(OC(F)(F)F)c1` (stereo not shown) [Compound 163], the pest or weed control at 100 g/ha in test [1] (setting [4]) and in test [1] (setting [5]) was 80 to 100% in each case. For the same compound, the pest or weed control at 50 ppm in test [3] (setting [6]) was 80 to 100%.
Consider `CC(C)(C)C(O)(c1cncnc1)c1ccc(-c2ccc(OC(F)(F)F)cn2)cn1` (stereo not shown) [Compound 150], for which the pest or weed control at 100 g/ha in test [1] (setting [4]) and in test [1] (setting [5]) was 80 to 100% throughout. In test [3] (setting [6]), the pest or weed control at 50 ppm is 80 to 100%.
In the case of `COc1ccc(-c2ccc(C(O)(c3cncnc3)C(C)(C)C)nc2)c(F)c1` (stereo not shown) [Compound 162], the pest or weed control at 100 g/ha in test [1] (setting [4]) and in test [1] (setting [5]) was 80 to 100% each time. The pest or weed control at 50 ppm in test [3] (setting [6]) was in the range of 80 to 100%.
`CC(C)(C)C(O)(c1cncnc1)c1ccc(-c2ccc(OC(F)(F)C(F)(F)F)cc2)cn1` (stereo not shown) [Compound 161]: the pest or weed control at 100 g/ha in test [1] (setting [4]) and in test [1] (setting [5]) was 80 to 100% throughout. Also, the pest or weed control at 50 ppm in test [3] (setting [6]) was in the range of 80 to 100%.
Regarding `CC(C)(C)C(O)(c1cncnc1)c1ccc(-c2ccc(C3(C(F)(F)F)CC3)cc2)cn1` (stereo not shown) [Compound 160], the pest or weed control at 100 g/ha in test [1] (setting [4]) and in test [1] (setting [5]) was 80 to 100% each time. The pest or weed control at 50 ppm in test [3] (setting [6]) was in the range of 80 to 100%.
`OC(c1cncnc1)(c1ccc(Oc2ccc(Cl)cc2)cn1)C1CC1` (stereo not shown) [Compound 7]: the pest or weed control at 50 ppm in test [3] (setting [6]) and in test [3] (setting [7]) was 80 to 100% throughout.
Regarding `CC(C)(C)C(O)(Cn1cnnn1)c1ccc(Oc2ccc(Cl)cc2)cn1` (stereo not shown) [Compound 43], the pest or weed control at 50 ppm in test [3] (setting [6]) fell in the range of 60 to 79%; in test [3] (setting [7]) it was 80 to 100%.
Turning to `OC(c1cncnc1)(c1ccc(Oc2cccc(Cl)n2)cn1)C1CC1` (stereo not shown) [Compound 72], in test [3] (setting [6]), the pest or weed control at 50 ppm was less than 40%.
Turning to `CC(C)(C)C#CC(O)(c1cncnc1)c1ccc(Oc2ccc(Cl)cc2)cn1` (stereo not shown) [Compound 29, 1-(5-(4-chlorophenoxy)pyridin-2-yl)-4,4-dimethyl-1-(pyrimidin-5-yl)pent-2-yn-1-ol], the pest or weed control at 50 ppm in test [3] (setting [6]) and in test [3] (setting [7]) was 80 to 100% throughout.
Consider `OC(Cc1cncnc1)(c1ccc(-c2ccc(Cl)cc2)cn1)C1CCCC1` (stereo not shown) [Compound 56], for which the pest or weed control at 50 ppm in test [3] (setting [6]) and in test [3] (setting [7]) was 80 to 100% in each case.
For `CC(C)(C)C#CC(O)(c1cncnc1)c1ccc(Oc2ccc(C(F)(F)F)cc2)cn1` (stereo not shown) [Compound 33], the figures for the pest or weed control at 50 ppm in test [3] (setting [6]) and in test [3] (setting [7]) were 80 to 100% and 60 to 79%, respectively.
On to `CC(C)C(O)(c1cncnc1)c1ccc(Oc2ccc(C#N)cc2)cn1` (stereo not shown) [Compound 16], for which the pest or weed control at 50 ppm in test [3] (setting [6]) and in test [3] (setting [7]) was 80 to 100% each time.
Take `OC(c1cccnc1)(c1ccc(Oc2ccc(Cl)cn2)cn1)C1CC1` (stereo not shown) [Compound 79]: the pest or weed control at 50 ppm in test [3] (setting [6]) was in the range of 80 to 100%.
`CC(F)(F)c1ccc(-c2ccc(C(O)(c3cncnc3)C(C)(C)C)nc2)cc1` (stereo not shown) [Compound 155]: the pest or weed control at 100 g/ha in test [1] (setting [4]) and in test [1] (setting [5]) was 60 to 79% throughout. In addition, the pest or weed control at 50 ppm in test [3] (setting [6]) is 80 to 100%.
`CC(C)(C)C(O)(c1cccnc1)c1ccc(-c2ccc(OC(F)(F)F)cc2F)cn1` (stereo not shown) [Compound 147]: the pest or weed control at 50 ppm in test [3] (setting [6]) was 80 to 100%.
In the case of `OC(c1cncnc1)(c1ccc(Oc2ccc(C(F)(F)F)cn2)cn1)C1CC1` (stereo not shown) [Compound 67], in test [3] (setting [6]), the pest or weed control at 50 ppm was less than 40%.
With `COc1ncncc1C(O)(c1ccc(-c2ccc(C#N)cc2)cn1)C(C)(C)C` (stereo not shown) [Compound 170], the pest or weed control at 50 ppm in test [3] (setting [6]) was 80 to 100%.
In the case of `OC(Cc1ccc(F)cc1)(c1cncnc1)c1ccc(-c2ccc(OC(F)(F)F)cc2)cn1` (stereo not shown) [Compound 136], the pest or weed control at 50 ppm in test [3] (setting [6]) fell in the range of 80 to 100%.
Still for that read-out and setting: then `OC(Cc1ccc(Cl)cc1Cl)(c1cncnc1)c1ccc(-c2ccc(OC(F)(F)F)cc2)cn1` (stereo not shown) [Compound 142], with 80 to 100%.
As for `CC(C)(C)C#CC(O)(c1cncnc1)c1ccc(Oc2ccc(Cl)cn2)cn1` (stereo not shown) [Compound 49], the pest or weed control at 50 ppm fell in the range of 60 to 79% in test [3] (setting [6]) and 80 to 100% in test [3] (setting [7]).
`COc1ncncc1C(O)(c1ccc(-c2ccc(C(C)(C)C)cc2)cn1)C(C)(C)C` (stereo not shown) [Compound 168]: the pest or weed control at 50 ppm in test [3] (setting [6]) fell in the range of 60 to 79%.
Turning to `CC(O)(c1cncnc1)c1ccc(-c2ccc(OC(F)(F)F)cc2)cn1` (stereo not shown) [Compound 99], the pest or weed control at 100 g/ha was less than 40% in test [1] (setting [4]) and 40 to 59% in test [1] (setting [5]). In addition, the pest or weed control at 50 ppm in test [3] (setting [6]) was in the range of 80 to 100%.
With `OC(Cc1cncnc1)(c1ccc(-c2ccc(Cl)cc2)cn1)C1CCCCC1` (stereo not shown) [Compound 52], the pest or weed control at 50 ppm in test [3] (setting [6]) and in test [3] (setting [7]) was 60 to 79% each time.
As to `CCC(O)(c1cncnc1)c1ccc(Oc2ccc(Cl)cn2)cn1` (stereo not shown) [Compound 54], the pest or weed control at 50 ppm is less than 40% in test [3] (setting [6]) and 40 to 59% in test [3] (setting [7]).
`C=CCCC(O)(c1cncnc1)c1ccc(Oc2ccc(Cl)cc2)cn1` (stereo not shown) [Compound 21, 1-(5-(4-chlorophenoxy)pyridine-2-yl)-1-(pyrimidin-5-yl)pent-4-en-1-ol]: the pest or weed control at 50 ppm in test [3] (setting [6]) and in test [3] (setting [7]) was 80 to 100% each time.
Consider `CC(C)C(O)(Cn1cnnn1)c1ccc(-c2ccc(OCC(F)(F)F)nc2)cn1` (stereo not shown) [Compound 62], for which the pest or weed control at 50 ppm in test [3] (setting [6]) and in test [3] (setting [7]) was 40 to 59% each time.
Consider `CCC(O)(c1cncnc1)c1ccc(Oc2ccc(C(F)(F)F)cc2)cn1` (stereo not shown) [Compound 34], for which the pest or weed control at 50 ppm lay in the range of 80 to 100% in test [3] (setting [6]) and 60 to 79% in test [3] (setting [7]).
In the case of `N#Cc1ccc(Oc2ccc(C(O)(Cn3cnnn3)C3CC3)nc2)cc1` (stereo not shown) [Compound 19, 4-((6-(1-cyclopropyl-1-hydroxy-2-(1H-tetrazol-1-yl)ethyl)pyridin-3-yl)oxy)benzonitrile], the pest or weed control at 50 ppm in test [3] (setting [6]) was less than 40%; in test [3] (setting [7]), 40 to 59%.
Turning to `OC(c1ccc(-c2ccc(OC(F)(F)F)cc2)cn1)(c1cncs1)c1ccc(F)cc1F` (stereo not shown) [Compound 94], the pest or weed control at 50 ppm in test [3] (setting [6]) lay within 60 to 79%.
As to `Cc1ccc(Oc2ccc(C(O)(C#CC(C)(C)C)c3cncnc3)nc2)nc1` (stereo not shown) [Compound 50], the pest or weed control at 50 ppm was less than 40% in test [3] (setting [6]) and 60 to 79% in test [3] (setting [7]).
Regarding `CC(C)(C)C#CC(O)(c1cncnc1)c1ccc(Oc2ccc(OC(F)(F)F)cc2)cn1` (stereo not shown) [Compound 31], the pest or weed control at 50 ppm is less than 40% in test [3] (setting [6]) and 60 to 79% in test [3] (setting [7]).
`CC(C)(C)C(O)(c1cncnc1)c1ccc(-c2cncnc2)cn1` (stereo not shown) [Compound 113]: the pest or weed control at 50 ppm in test [3] (setting [6]) is 60 to 79%.
`CN(C)c1ccc(-c2ccc(C(O)(c3cncnc3)C(C)(C)C)nc2)cc1` (stereo not shown) [Compound 100]: in test [3] (setting [6]), the pest or weed control at 50 ppm is 80 to 100%.
On to `N#Cc1ccc(Oc2ccc(C(O)(c3cncnc3)C3CC3)nc2)cc1` (stereo not shown) [Compound 18], for which the pest or weed control at 50 ppm in test [3] (setting [6]) and in test [3] (setting [7]) was less than 40% throughout.
Take `OC(CCc1ccc(F)cc1F)(Cn1cnnn1)c1ccc(Oc2ccc(Cl)cn2)cn1` (stereo not shown) [Compound 2, 2-(5-((5-chloropyridin-2-yl)oxy)pyridin-2-yl)-4-(2,4-difluorophenyl)-1-(1H-tetrazol-1-yl)butan-2-ol]: the pest or weed control at 50 ppm in test [3] (setting [6]) is 80 to 100%; in test [3] (setting [7]) it was less than 40%.
